Experiments:
Type in all cases: in vivo
[1] = system: Diabrotica Balteata (Corn Root Worm); experiment: Diabrotica balteata (corn root worm) mortality on sprayed maize sprouts; conditions: 96 h, application rate of 200 ppm, L2 larvae, assessed 4 days after infestation, read-out: control (mortality)
Procedure: Diabrotica Balteata (Corn Root Worm):
Maize sprouts placed onto an agar layer in 24-well microtiter plates were treated with aqueous test solutions prepared from 10′000 ppm DMSO stock solutions by spraying. After drying, the plates were infested with L2 larvae (6 to 10 per well). The samples were assessed for mortality 4 days after infestation.

[2] = system: Plutella xylostella (Diamond Back Moth); experiment: Plutella xylostella feeding/contact activity on treated artificial diet; conditions: 120 h, application rate of 200 ppm, L2 larvae, assessed 5 days after infestation, read-out: control (mortality)
Procedure: Plutella xylostella (Diamond Back Moth): Feeding/Contact Activity
24-well microtiter plates with artificial diet were treated with aqueous test solutions prepared from 10′000 ppm DMSO stock solutions by pipetting. After drying, the plates were infested with L2 larvae (10 to 15 per well). The samples were assessed for mortality 5 days after infestation.

[3] = system: Tetranychus urticae (Two-Spotted Spider Mite); experiment: Tetranychus urticae feeding/contact activity on sprayed bean leaf discs; conditions: foliar, 192 h, application rate of 200 ppm, mite population of mixed ages, assessed 8 days after infestation, read-out: control (mortality on mixed population, mobile stages)
Procedure: Tetranychus urticae (Two-Spotted Spider Mite): Feeding/Contact Activity
Bean leaf discs on agar in 24-well microtiter plates were sprayed with aqueous test solutions prepared from 10′000 ppm DMSO stock solutions. After drying the leaf discs were infested with a mite population of mixed ages. The samples were assessed for mortality on mixed population (mobile stages) 8 days after infestation.

[4] = system: Spodoptera littoralis (Egyptian Cotton Leaf Worm); experiment: Spodoptera littoralis feeding/contact activity on sprayed cotton leaf discs; conditions: foliar, 72 h, application rate of 200 ppm, L1 larvae, assessed 3 days after infestation, read-out: control (mortality)
Procedure: Spodoptera littoralis (Egyptian Cotton Leaf Worm): Feeding/Contact Activity
Cotton leaf discs were placed onto agar in 24-well microtiter plates and sprayed with aqueous test solutions prepared from 10′000 ppm DMSO stock solutions. After drying the leaf discs were infested with five L1 larvae. The samples were assessed for mortality 3 days after infestation.

[5] = system: Thrips tabaci (Onion thrips); experiment: Thrips tabaci feeding/contact activity on sprayed sunflower leaf discs; conditions: foliar, 144 h, application rate of 200 ppm, thrips population of mixed ages, assessed 6 days after infestation, read-out: control (mortality)
Procedure: Thrips tabaci (Onion thrips): Feeding/Contact Activity
Sunflower leaf discs were placed on agar in 24-well microtiter plates and sprayed with aqueous test solutions prepared from 10′000 ppm DMSO stock solutions. After drying the leaf discs were infested with a thrips population of mixed ages. The samples were assessed for mortality 6 days after infestation.

[6] = system: Euschistus heros (Neotropical Brown Stink Bug); experiment: Euschistus heros feeding/contact activity on sprayed soybean leaves; conditions: 120 h, application rate of 200 ppm, N2 nymphs, assessed 5 days after infestation, read-out: control (mortality)
Procedure: Euschistus heros (Neotropical Brown Stink Bug): Feeding/Contact Activity
Soybean leaves on agar in 24-well microtiter plates were sprayed with aqueous test solutions prepared from 10′000 ppm DMSO stock solutions. After drying the leaves were infested with N2 nymphs. The samples were assessed for mortality 5 days after infestation.

[7] = system: Myzus persicae (Green Peach Aphid); experiment: Myzus persicae feeding/contact activity on sprayed sunflower leaf discs; conditions: foliar, 144 h, application rate of 200 ppm, aphid population of mixed ages, assessed 6 days after infestation, read-out: control (mortality)
Procedure: Myzus persicae (Green Peach Aphid): Feeding/Contact Activity
Sunflower leaf discs were placed onto agar in a 24-well microtiter plate and sprayed with aqueous test solutions prepared from 10′000 ppm DMSO stock solutions. After drying, the leaf discs were infested with an aphid population of mixed ages. The samples were assessed for mortality 6 days after infestation.

Measured: mortality at 200 ppm

Cn1c(-n2cc(-c3ccc(Cl)c(C(=O)NC4(C#N)CC4)c3)cn2)cc(C(F)(C(F)(F)F)C(F)(F)F)c1Cl [Compound 5, 2-chloro-5-[1-[5-chloro-1-methyl-4-[1,2,2,2-tetrafluoro-1-(trifluoromethyl)ethyl]pyrrol-2-yl]pyrazol-4-yl]-N-(1-cyanocyclopropyl)benzamide]
≥ 80%: [1] | [2] | [3] | [4]

Cn1cc(C(F)(F)C(F)(F)F)c(C(F)(F)F)c1-c1cc(-c2cc(C(=O)NC3CC3)c(C#N)s2)on1 [Compound 3, 2-cyano-N-cyclopropyl-5-[3-[1-methyl-4-(1,1,2,2,2-pentafluoroethyl)-3-(trifluoromethyl)pyrrol-2-yl]isoxazol-5-yl]thiophene-3-carboxamide]
not listed: [7]
≥ 80%: all other assays above

Cn1c(Br)cc(C(F)(C(F)(F)F)C(F)(F)F)c1-c1cc(-c2ccc(Cl)c(C(=O)NC3(C#N)CC3)c2)on1 [Compound 7, 5-[3-[5-bromo-1-methyl-3-[1,2,2,2-tetrafluoro-1-(trifluoromethyl)ethyl]pyrrol-2-yl]isoxazol-5-yl]-2-chloro-N-(1-cyanocyclopropyl)benzamide]
≥ 80%: [1] | [2] | [4] | [7]

Cn1c(Cl)c(C(F)(C(F)(F)F)C(F)(F)F)c(Br)c1-n1cc(-c2ccc(Cl)c(C(=O)NC3(C#N)CC3)c2)cn1 [Compound 6, 5-[1-[3-bromo-5-chloro-1-methyl-4-[1,2,2,2-tetrafluoro-1-(trifluoromethyl)ethyl]pyrrol-2-yl]pyrazol-4-yl]-2-chloro-N-(1-cyanocyclopropyl)benzamide]
≥ 80%: [1] | [2] | [3] | [4]

Cn1cc(C(F)(F)C(F)(F)F)c(C(F)(F)F)c1-n1cc(-c2cc(C(=O)NC3CC3)c(C#N)s2)cn1 [Compound 1, 2-cyano-N-cyclopropyl-5-[1-[1-methyl-4-(1,1,2,2,2-pentafluoroethyl)-3-(trifluoromethyl)pyrrol-2-yl]pyrazol-4-yl]thiophene-3-carboxamide]
≥ 80%: all assays above

Cn1cc(C(F)(F)F)c(C(F)(F)C(F)(F)F)c1-n1cc(-c2cc(C(=O)NC3CC3)c(C#N)s2)cn1 [Compound 2, 2-cyano-N-cyclopropyl-5-[1-[1-methyl-3-(1,1,2,2,2-pentafluoroethyl)-4-(trifluoromethyl)pyrrol-2-yl]pyrazol-4-yl]thiophene-3-carboxamide]
not listed: [5]
≥ 80%: all other assays above

Cn1cc(C(F)(F)F)c(C(F)(F)C(F)(F)F)c1-c1cc(-c2cc(C(=O)NC3CC3)c(C#N)s2)on1 [Compound 4, 2-cyano-N-cyclopropyl-5-[3-[1-methyl-3-(1,1,2,2,2-pentafluoroethyl)-4-(trifluoromethyl)pyrrol-2-yl]isoxazol-5-yl]thiophene-3-carboxamide]
not listed: [6] | [7]
≥ 80%: all other assays above
